The source of these data is a flash point compilation (Sun et al. 2020).

Turning to `N#CCCCCC#N` [1,4-dicyanobutane], the flash point was determined as 159 °C.

`CC(C)c1ccc(C(C)C)cc1` [1,4-diisopropylbenzene] returned a flash point of 76 °C.

In the case of `C=CCCCC=C` [1,6-heptadiene], the flash point is -10 °C.

In turn, `C#CCCCC#C` [1,6-heptadiyne] gave a flash point of 9 °C.

`C=CCCCCC=C` [1,7-octadiene]: the flash point worked out at 5 °C.

`C#CCCCCC#C` [1,7-octadiyne]: the flash point was determined as 23 °C.

Take `CCc1ccccc1Br` [1-bromo-2-ethylbenzene]: the flash point was determined as 79 °C.

As to `CCCCBr` [1-bromobutane], the flash point was found to be 10 °C.

In turn, `CCCCCCBr` [1-bromohexane] gave a flash point of 47 °C.

Take `CCCBr` [1-bromopropane]: the flash point was -4 °C.

Compound `CCCCS` [1-butanethiol] displayed a flash point of 2 °C.

`CC(C)CCl` [1-chloro-2-methylpropane] came in with a flash point of -17 °C.

`CCc1ccc(Cl)cc1` [1-chloro-4-ethylbenzene] displayed a flash point of 62 °C.

On to `CCCCCCCCl` [1-chloroheptane], for which the flash point was determined as 41 °C.

As for `CCCCCCCl` [1-chlorohexane], the flash point stood at 26 °C.

`CCCCCCCCCCl` [1-chlorononane] returned a flash point of 74 °C.

For the compound `CCCCCCCCCCN` [1-decanamine], the flash point is 85 °C.

As to `CCCCCCCCCCO` [1-decanol], the flash point was determined as 108 °C.

`CCCCCCCCCCCCO` [1-dodecanol] yielded a flash point of 127 °C.

For the compound `C#CCCCCCCCCCC` [1-dodecyne], the flash point amounted to 79 °C.

`CCc1cccc(C)c1C` [1-ethyl-2,3-dimethylbenzene]: the flash point came to 65 °C.

Consider `CCc1ccc(C)cc1C` [1-ethyl-2,4-dimethylbenzene], for which the flash point was found to be 57 °C.

`CCc1cccc(C(C)C)c1` [1-ethyl-3-isopropylbenzene]: the flash point amounted to 63 °C.

With `CCc1ccc(F)cc1` [1-ethyl-4-fluorobenzene], the flash point worked out at 30 °C.

`CCN1CCCCC1` [1-ethylpiperidine]: the flash point is 18 °C.

In the case of `Cc1cc(C)cc(F)c1` [1-fluoro-3,5-dimethylbenzene], the flash point came out at 35 °C.

On to `CCCCCCCS` [1-heptanethiol], for which the flash point is 46 °C.

For the compound `CCCCCCCO` [1-heptanol], the flash point was 70 °C.

Compound `C=CCCCCCCCCCCCCCC` [1-hexadecene] registered a flash point of 129 °C.

`CCCCCCS` [1-hexanethiol] yielded a flash point of 30 °C.

`Cc1cccc(I)c1` [1-iodo-3-methylbenzene] had a flash point of 83 °C.

On to `CCCCCCCI` [1-iodoheptane], for which the flash point was determined as 79 °C.

With `CCCCCCI` [1-iodohexane], the flash point worked out at 61 °C.

For the compound `CCCCCCCCI` [1-iodooctane], the flash point worked out at 95 °C.

`Cn1cccc1` [1-methylpyrrole]: the flash point was determined as 15 °C.

As to `CCCC[N+](=O)[O-]` [1-nitrobutane], the flash point turned out to be 47 °C.

In turn, `CCCCCC[N+](=O)[O-]` [1-nitrohexane] yielded a flash point of 72 °C.

With `CCCCC[N+](=O)[O-]` [1-nitropentane], the flash point was found to be 61 °C.

The compound `CCCCCCCCCS` [1-nonanethiol] yielded a flash point of 79 °C.

On to `C=CCCCCCCC` [1-nonene], for which the flash point stood at 25 °C.

In turn, `C#CCCCCCCC` [1-nonyne] came in with a flash point of 33 °C.

Take `C=CCCCCCCCCCCCCCCCC` [1-octadecene]: the flash point amounted to 154 °C.

Regarding `CCCCCCCCS` [1-octanethiol], the flash point came out at 68 °C.

For `CCC(=O)Cc1ccccc1` [1-phenyl-2-butanone], the flash point was found to be 91 °C.

`CCC(C)Cc1ccccc1` (configuration not stated) [1-phenyl-2-methylbutane] showed a flash point of 64 °C.

Regarding `CC(=O)OC(C)c1ccccc1` (configuration not stated) [1-phenylethylacetate], the flash point turned out to be 91 °C.

In turn, `CCC(=O)OC(C)c1ccccc1` (configuration not stated) [1-phenylethylpropionate] displayed a flash point of 106 °C.

Compound `CCCS` [1-propanethiol] had a flash point of -14 °C.

On to `CCCO` [1-propanol], for which the flash point came out at 23 °C.

As for `CCCCCCCCCCCS` [1-undecanethiol], the flash point amounted to 109 °C.

`C=CCCCCCCCCC` [1-undecene] displayed a flash point of 54 °C.

On to `CC(C)(C)C(C)(C)C` [2,2,3,3-tetramethylbutane], for which the flash point is -0 °C.

The compound `CCCC(C)(C)C(C)(C)C` [2,2,3,3-tetramethylhexane] had a flash point of 31 °C.

`CC(C)C(C)C(C)(C)C` (configuration not stated) [2,2,3,4-tetramethylpentane] gave a flash point of 11 °C.

`CCCC(C)C(C)(C)C` (configuration not stated) [2,2,3-trimethylhexane]: the flash point worked out at 15 °C.

Compound `CCC(C)C(C)(C)C` (configuration not stated) [2,2,3-trimethylpentane] came in with a flash point of -3 °C.

`CCC(C)(C)CC(C)(C)C` [2,2,4,4-tetramethylhexane]: the flash point was found to be 31 °C.

The compound `CCC(C)CC(C)(C)C` (configuration not stated) [2,2,4-trimethylhexane] gave a flash point of 13 °C.

Take `CC(C)CC(C)(C)C` [2,2,4-trimethylpentane]: the flash point was -7 °C.

The compound `CC(C)(C)CCC(C)(C)C` [2,2,5,5-tetramethylhexane] showed a flash point of 16 °C.

For the compound `CCCCC(C)(C)C` [2,2-dimethylhexane], the flash point was -3 °C.

Compound `CCCCCCC(C)(C)C` [2,2-dimethyloctane] came in with a flash point of 31 °C.

In the case of `CCCC(C)(C)C` [2,2-dimethylpentane], the flash point was -23 °C.

For the compound `CC(C)(C)C#N` [2,2-dimethylpropanenitrile], the flash point is 4 °C.

`CCC(C)C(C)(C)C(C)C` (configuration not stated) [2,3,3,4-tetramethylhexane]: the flash point came out at 31 °C.

On to `CC(C)C(C)(C)C(C)C` [2,3,3,4-tetramethylpentane], for which the flash point turned out to be 11 °C.

Consider `CCC(C)(C)C(C)C` [2,3,3-trimethylpentane], for which the flash point was determined as 5 °C.

Compound `CCC(C)(C)C(C)C(C)C` (configuration not stated) [2,3,4,4-tetramethylhexane] yielded a flash point of 31 °C.

For `CCC(C)C(C)C(C)C` (configuration not stated) [2,3,4-trimethylhexane], the flash point was 15 °C.

`C=C(C)C(=C)C` [2,3-dimethyl-1,3-butadiene] had a flash point of -22 °C.

Regarding `CC(C)=C(C)C` [2,3-dimethyl-2-butene], the flash point was -20 °C.

`CCCCC(C)C(C)C` (configuration not stated) [2,3-dimethylheptane] displayed a flash point of 15 °C.

Take `CCC(C)C(C)C` (configuration not stated) [2,3-dimethylpentane]: the flash point was -15 °C.

For `C=C(C)CC(C)(C)C` [2,4,4-trimethyl-1-pentene], the flash point was -4 °C.

In the case of `CC(C)=CC(C)(C)C` [2,4,4-trimethyl-2-pentene], the flash point is -1 °C.

In the case of `CC1CC(C)(C)CC1=O` (configuration not stated) [2,4,4-trimethylcyclopentanone], the flash point amounted to 43 °C.

As to `CC(C)CC(C)C` [2,4-dimethylpentane], the flash point was -12 °C.

Turning to `COC1C=CC(OC)O1` (configuration not stated) [2,5-dimethoxy-2,5-dihydrofuran], the flash point worked out at 47 °C.

The compound `CC(C)CCC(C)C` [2,5-dimethylhexane] registered a flash point of -2 °C.

`C1=CC2C=CC1C2` [2,5-norbornadiene] gave a flash point of -11 °C.

In the case of `CC(C)c1cccc(C(C)C)c1N` [2,6-diisopropylaniline], the flash point stood at 123 °C.

For the compound `CCC(C)CCCC(C)C` (configuration not stated) [2,6-dimethyloctane], the flash point amounted to 34 °C.

The compound `CC(C)(N)CO` [2-amino-2-methyl-1-propanol] had a flash point of 68 °C.

As for `COC(CBr)OC` [2-bromo-1,1-dimethoxyethane], the flash point was found to be 51 °C.

Compound `CCCCC(C)Br` (configuration not stated) [2-bromohexane] gave a flash point of 40 °C.

On to `CCCC(C)Br` (configuration not stated) [2-bromopentane], for which the flash point was found to be 21 °C.

In turn, `Cc1ccccc1Br` [2-bromotoluene] had a flash point of 78 °C.

`CCC(C)O` (configuration not stated) [2-butanol] registered a flash point of 24 °C.

For the compound `CCC(C)=O` [2-butanone], the flash point is -7 °C.

Compound `CC=CC#N` [2-butenenitrile] displayed a flash point of 17 °C.

Compound `CCCCC1CCCC1=O` (configuration not stated) [2-butylcyclopentanone] yielded a flash point of 68 °C.

In the case of `C=CC(=C)Cl` [2-chloro-1,3-butadiene], the flash point is -20 °C.

As for `CC(C)(C)Cl` [2-chloro-2-methylpropane], the flash point is -23 °C.

`CCCC(C)Cl` (configuration not stated) [2-chloropentane]: the flash point was 1 °C.

Compound `Oc1ccccc1Cl` [2-chlorophenol] returned a flash point of 72 °C.

The compound `CC(C)Cl` [2-chloropropane] registered a flash point of -32 °C.

For `Clc1ccccn1` [2-chloropyridine], the flash point worked out at 64 °C.

`Cc1ccccc1Cl` [2-chlorotoluene] yielded a flash point of 47 °C.

With `O=C1CCCC1C1CCCC1` (configuration not stated) [2-cyclopentylcyclopentanone], the flash point amounted to 90 °C.

In the case of `CCCCCCCCC(C)=O` [2-decanone], the flash point worked out at 85 °C.

The compound `CC#CCCCCCCC` [2-decyne] had a flash point of 53 °C.

As for `CN(C)CCO` [2-dimethylaminoethanol], the flash point came out at 41 °C.

`CCCCCCCCCCC(C)O` (configuration not stated) [2-dodecanol] yielded a flash point of 113 °C.

Take `CCOCCO` [2-ethoxyethanol]: the flash point is 42 °C.

Take `CCC(CC)CO` [2-ethyl-1-butanol]: the flash point came to 57 °C.

The compound `CCCCC(CC)CO` (configuration not stated) [2-ethyl-1-hexanol] registered a flash point of 74 °C.

Turning to `CCc1cccc(C)c1N` [2-ethyl-6-methylaniline], the flash point is 102 °C.
